According to patent US9546150B2, “Substituted quinazolin-4-ones for inhibiting ubiquitin specific protease 7” (HYBRIGENICS SA, priority 2011, dated 2017):

Tests used:
USP7 = USP7 (Homo sapiens, UniProt Q93009); test: GST-Ub52-Flag HTRF deubiquitinating enzyme assay, USP7; type: biochemical; set-up: Full-length wild-type human USP7 and its catalytic mutant; His tag (pFastBac-HT vector) (N); made in house; host or cells: Spodoptera frugiperda Sf9 (or High Five) insect cells, baculovirus; conditions: GST-Ub52-Flag substrate, USP7 200 pM
USP7, sequence (Q93009 whole entry): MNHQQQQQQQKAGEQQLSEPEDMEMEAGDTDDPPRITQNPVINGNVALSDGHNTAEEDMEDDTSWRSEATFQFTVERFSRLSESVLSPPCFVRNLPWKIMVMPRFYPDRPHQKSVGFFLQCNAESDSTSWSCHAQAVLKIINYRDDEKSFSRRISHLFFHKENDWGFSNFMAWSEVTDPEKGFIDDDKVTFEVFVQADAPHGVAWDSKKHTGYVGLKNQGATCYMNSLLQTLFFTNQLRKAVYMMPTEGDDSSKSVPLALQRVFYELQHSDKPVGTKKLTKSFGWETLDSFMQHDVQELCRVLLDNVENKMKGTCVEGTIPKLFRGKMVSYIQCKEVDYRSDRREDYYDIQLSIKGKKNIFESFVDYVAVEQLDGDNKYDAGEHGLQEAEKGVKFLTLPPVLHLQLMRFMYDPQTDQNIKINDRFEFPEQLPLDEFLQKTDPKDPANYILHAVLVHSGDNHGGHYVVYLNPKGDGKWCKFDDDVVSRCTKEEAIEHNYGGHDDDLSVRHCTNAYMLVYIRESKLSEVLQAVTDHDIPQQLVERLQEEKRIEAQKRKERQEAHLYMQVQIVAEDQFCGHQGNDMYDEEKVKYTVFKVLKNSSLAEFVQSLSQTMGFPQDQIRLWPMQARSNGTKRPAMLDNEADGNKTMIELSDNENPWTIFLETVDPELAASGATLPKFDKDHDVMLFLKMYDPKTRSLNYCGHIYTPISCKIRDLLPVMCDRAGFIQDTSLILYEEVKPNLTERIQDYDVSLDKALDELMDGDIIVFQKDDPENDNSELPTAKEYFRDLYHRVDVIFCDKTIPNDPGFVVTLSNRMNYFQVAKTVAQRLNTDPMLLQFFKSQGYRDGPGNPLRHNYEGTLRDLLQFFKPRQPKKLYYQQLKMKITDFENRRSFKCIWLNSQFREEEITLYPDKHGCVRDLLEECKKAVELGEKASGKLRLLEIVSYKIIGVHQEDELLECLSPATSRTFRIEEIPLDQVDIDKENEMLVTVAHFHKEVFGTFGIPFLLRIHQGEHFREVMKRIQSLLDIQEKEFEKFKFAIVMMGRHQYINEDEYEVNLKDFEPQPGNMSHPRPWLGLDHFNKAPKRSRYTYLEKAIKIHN
Method: Bacmid DNA was prepared by an alkaline lysis procedure. The integrity of the bacmid minipreps and their orientation were checked by PCR, using generic and specific primers. Sf9 insect cells were cultured in InsectXpress medium (Cambrex) at 27° C. and transfected with the corresponding bacmid, using GeneShuttle 40 (Q-BIOgen). Viruses were recovered in the supernatant 72 h after transfection. Viruses were amplified by infecting insect cells (Sf9 or High Five cells; invitrogen) in 50 ml InsectXpress medium in a 150 cm^2 cell culture flask with 500 μl of the supernatant from transfected Sf9 cells. Following the second round of amplification, infected cells were recovered by rapid SDS lysis, boiled for 5 min at 100° C., sonicated briefly and centrifuged for 20 min at 14,000 g.
Flow Through was recovered.

USP8 = biological target: T1, USP8 (Homo sapiens, UniProt P40818); test: GST-Ub52-Flag HTRF deubiquitinating enzyme assay, USP8
T1 sequence (P40818 1-1118): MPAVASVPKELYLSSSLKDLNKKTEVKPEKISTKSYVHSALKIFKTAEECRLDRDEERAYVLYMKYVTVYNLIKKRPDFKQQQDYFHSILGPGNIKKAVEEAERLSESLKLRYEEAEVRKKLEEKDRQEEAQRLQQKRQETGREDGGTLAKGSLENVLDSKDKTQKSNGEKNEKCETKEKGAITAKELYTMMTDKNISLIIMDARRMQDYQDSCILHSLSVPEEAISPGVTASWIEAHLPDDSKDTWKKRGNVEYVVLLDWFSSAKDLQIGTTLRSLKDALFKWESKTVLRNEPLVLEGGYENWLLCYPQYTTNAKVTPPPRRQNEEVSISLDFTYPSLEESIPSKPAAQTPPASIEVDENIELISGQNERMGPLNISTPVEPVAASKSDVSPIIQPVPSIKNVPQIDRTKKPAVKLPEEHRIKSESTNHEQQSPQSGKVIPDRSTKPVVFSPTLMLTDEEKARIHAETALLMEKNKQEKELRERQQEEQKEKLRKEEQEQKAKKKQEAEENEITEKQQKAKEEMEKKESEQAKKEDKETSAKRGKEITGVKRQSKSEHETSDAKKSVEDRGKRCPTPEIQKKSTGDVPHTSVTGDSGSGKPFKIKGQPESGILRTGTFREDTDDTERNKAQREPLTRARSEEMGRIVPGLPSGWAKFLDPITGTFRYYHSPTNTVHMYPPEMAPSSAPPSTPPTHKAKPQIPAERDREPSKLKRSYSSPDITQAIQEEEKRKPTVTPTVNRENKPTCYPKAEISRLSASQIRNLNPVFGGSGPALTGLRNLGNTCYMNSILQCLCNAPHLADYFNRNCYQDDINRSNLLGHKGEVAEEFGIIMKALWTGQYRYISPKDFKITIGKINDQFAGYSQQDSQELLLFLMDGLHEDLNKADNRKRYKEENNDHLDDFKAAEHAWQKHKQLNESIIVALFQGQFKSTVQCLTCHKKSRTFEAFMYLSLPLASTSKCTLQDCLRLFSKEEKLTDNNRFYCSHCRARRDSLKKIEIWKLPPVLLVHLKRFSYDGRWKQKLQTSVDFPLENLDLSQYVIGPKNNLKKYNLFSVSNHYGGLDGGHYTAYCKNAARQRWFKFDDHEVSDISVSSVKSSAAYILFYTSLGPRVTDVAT
Source text: The cDNA encoding USP8 was obtained by PCR amplification from placenta mRNA. USP8 cDNA was subcloned by PCR into a baculovirus expression vector (pFastBac-HT; Invitrogen). A cDNA encoding a mutated USP8 was generated by mutagenic PCR. […] The sequences were ascertained by sequencing of the entire open reading frame. Bacmids encoding USP8 were generated following DH10bac transposition. The corresponding bacmids were transfected into insect cells (Sf9). Viruses were recovered from culture supernatant and amplified twice. Insect cells (Sf9 or High Five; Invitrogen) were infected for 72 hours. […] Proteins were affinity purified on metal affinity resins (Talon Metal affinity resin; BD Biosciences). Bound materials were extensively washed in wash buffer (50 mM Sodium Phosphate pH 7.0; 300 mM NaCl; 10 mM imidazole; 0.5% Triton X-100; 10% glycerol) and eluted from the resin in 250 mM imidazole-containing wash buffer. Proteins were dialyzed in dialysis buffer (Tris HCl pH 7.6 20 mM; NaCl 200 mM; DTT 1 mM; EDTA 1 mM; 10% Glycerol).
A cDNA encoding the fusion protein between ubiquitin and the ribosomal protein L40 (ub52 or uba52 or ubiquitin-L40) was amplified from human RNA using a proprietary human placenta library. The cDNA was subcloned into a bacterial expression vector (pGEX-2T, GE Healthcare), including an additional flag tag at the carboxyl end of the encoded protein.
For production and purification of recombinant proteins, the plasmid pGEX-2T-Ub52-flag was transformed into E. coli BL21 (Stratagene), grown in LB medium supplemented with 100 mg/ml ampicillin (LB ampi) at 37° C. overnight and then diluted 1/100 in LB ampi. The cells were incubated at 37° C. until an A600=0.6-0.8 was reached. After induction with 0.1 mM isopropyl-β-D-thiogalactopyranoside (IPTG), the culture was incubated at 30° C. for 180 min.
Cells were harvested by centrifugation for 15 min at 7000×g at 4° C. Bacterial pellets were lysed in NETN (Tris HCl pH 8.0; EDTA 1 mM; NP40 0.5%; protease inhibitor cocktail, PMSF 1 mM) and briefly sonicated. Insoluble material was removed by centrifugation 30 min at 14000×g. […] Briefly, soluble fraction was incubated on Glutathione beads pre-equilibrated in NETN buffer+0.5% Milk for 120 min at 4° C. Flow Through was recovered. Beads were extensively washed: the last wash was performed in Tris HCl pH 7.6 20 mM; NaCl 100 mM; MgCl2 12 mM. Elutions were performed using 20 mM Reduced Glutathione in 50 mM Tris HCl pH 8.0, NaCl 120 mM. […] Elutions were dialysed over night at 4° C. in Tris HCl pH 7.6 20 mM; NaCl 50 mM; DTT 0.5 mM.
The use of GST-Ub52-Flag is based on the time-resolved measurement of fluorescence emitted by transfer in homogenous medium.
The assay is carried out on multiwell assay plates. The plates are analyzed on a PHERAstar fluorimeter (BMG) after an overnight incubation at 4° C.
The enzyme reaction is carried out by mixing GST-Ub52-flag solution with 5 μl of USP7 solution (200 pM final) or 5 μl of USP8 (400 pM final). This mixture is incubated for one hour at room temperature on a multiwell assay plate. […] The plate is read after an overnight incubation at 4° C. on a PHERAstar fluorimeter (BMG).
The decrease in the signal correlates with the increase in enzyme activity i.e. the cleavage of GST-Ub52-Flag substrate.
Data (mean values+/−standard deviation) were analyzed as % of control (no compound) and plotted as percentage versus the Log of the compound concentration using GraphPad (Prism).

O=C(COc1cccc(F)c1)N1CCC(O)(Cn2cnc3ccccc3c2=O)CC1 [Example 8, 3-({1-[2-(3-fluorophenoxy)acetyl]-4-hydroxypiperidin-4-yl}methyl)-3,4-dihydroquinazolin-4-one]
IC50 (USP7): 224 µM | IC50 (USP8): > 200 µM
